In patent publication US9422303B2, “Formulations of water-insoluble chemical compounds and methods of using a formulation of compound FL118 for cancer therapy” (Health Research, Inc., priority 2010, dated 2016):

Experiments:
[1] = tested on: human tumor xenografts; assay: Antitumor activity/toxicity in human tumor mouse models (general statements); assay type: in vivo; conditions: example: SCID mice, primary colon 11124 and 14528, weekly×4 (FIG. 15)
Protocol: (§1) Six to 12-week-old female athymic nude mice (nu/nu, body weight 20-25 g) were purchased from Charles River Laboratories International, Inc. (Wilmington, Mass.) or Harlan Sprague Dawley Inc. (Indianapolis, Ind.). Six to 12-week-old female SCID mice were purchased from Roswell Animal facility (DLAR). Mice were housed at 5 mice per cage with water and food ad libitum. All animal experiments are performed in accordance with our IACUC-approved animal protocol.
Human tumor xenografts were initially established by injecting s.c 1×10^6 cultured cancer cells. The xenografts were then passed several generations by transplanting 40-50 mg non-necrotic tumor tissues via a trocar from the passage tumors. […]
(§2) Two axes (mm) of a tumor (L, longest axis; W, shortest axis) were measured with a Vernier caliper. […]
(§3) Antitumor activity was assessed by maximum tumor growth inhibition (MTGI), which is the mean tumor weight difference between treated group (MTWTG) and untreated control group (MTWCG) at the same time. The calculated formula is “MTGI=(MTWTG−MTWCG)÷MTWCG×100%”. […] Tumor response was expressed as 1) partial tumor response (PR) when tumor weight was reduced at least 50% initial tumor size on Day 0 and 2) complete tumor response (CR) which was defined as inability to detect tumor via palpitation at the initial tumor-transplanted site. […]

[2] = Solubility testing in DMSO, ethanol, water
[3] = tested on: human FaDu head and neck tumor xenografts; assay: Antitumor activity in nude mice bearing human FaDu head and neck tumor xenografts; assay type: in vivo; conditions: one-time i.p. injection at about MTD (FIG. 1)
Protocol: as §1
FL118 was first dissolved in DMSO at a concentration of 1 mg/ml, and further diluted in a fresh Tween-80/saline solution. The final work solution consists of FL118 (0.05 mg/ml), 75% saline (V/V), 20% Tween-80 (V/V) and 5% DMSO (V/V). […]
as §2, §3

[4] = irinotecan, stated without source; cited from earlier work
[5] = tested on: human 17073 primary head & neck xenografts; assay: Antitumor activity and toxicity in SCID mice bearing human 17073 primary head & neck xenografts; assay type: in vivo; conditions: at MTD
Excerpt: FIG. 2 Comparison of antitumor activity and toxicity (body weight loss) of FL118 with irinotecan in SCID mice bearing human 17073 primary head & neck xenografts: A and B. Antitumor activity and toxicity of FL118 and irinotecan against 17073 tumors. C, D and E. Individual 17073 tumor in response to FL118 and irinotecan. The treatment schedule was weekly×4 as indicated by arrows. The doses for FL118 and irinotecan were their MTD in the weekly×4 schedule.
(§4) Human tumor xenografts were initially established by injecting s.c 1×10^6 cultured cancer cells. The xenografts were then passed several generations by transplanting 40-50 mg non-necrotic tumor tissues via a trocar from the passage tumors. Human primary tumors were initially obtained from cancer patients at Roswell Park Cancer Institute and established in SCID mice. Human tumor xenografts used in this study include human head & neck squamous cell carcinoma FaDu, human primary head & neck tumor 17073, human ileocecal adenocarcinoma HCT-8, human colon cancer SW620 and human primary colon cancer 11124 and 14528. Treatment was initiated 7 days after tumor transplantation when the tumor reaches 200-250 mg, at which the treatment was designated as Day 0. All cancer cells used for tumor establishment were tested for mycoplasma free. The transplantable tumor has similar histological profile of cultured cells.
Two axes (mm) of a tumor (L, longest axis; W, shortest axis) were measured with a Vernier caliper. Tumor weight (mg) was estimated using a formula of “tumor weight=½ (L×W^2)”. […]
as §3

[6] = tested on: human HCT-8 colon tumor xenografts; assay: Antitumor activity in nude mice bearing human HCT-8 colon tumor xenografts; assay type: in vivo
Protocol: as §1
FL118 was first dissolved in DMSO at a concentration of 1 mg/ml, and further diluted in a fresh Tween-80/saline solution. The final work solution consists of FL118 (0.05 mg/ml), 75% saline (V/V), 20% Tween-80 (V/V) and 5% DMSO (V/V). Control solution (placebo or vehicle) is 75% saline, 20% Tween-80 and 5% DMSO without FL118. Other FDA-approved anticancer drugs used in this invention for a comparison were used clinical formulations from the corresponding manufactures.
as §4
The following schedules were used: 1) i.p. daily×2: once a day for consecutive 2 days; 2) i.p. daily×3: once a day for consecutive 3 days; 3) daily×5: once a day for consecutive 5 days (i.p. or p.o.); 4) i.p.×3 (day 0, 2, 4): 3 times on day 0, 2, and 4; 5) i.p. 2 days/week×¾: 2 times a week for 3 or 4 consecutive weeks; 6) weekly×4: once a week for 4 consecutive weeks (i.p. or p.o.); 7) i.p. biweekly×4: once every two weeks for 8 weeks; 8) 2 days/week×4: give 2 times a week for 4 weeks; and 9) i.p.×1: one time drug i.p. injection on Day 0.
Two axes (mm) of a tumor (L, longest axis; W, shortest axis) were measured with a Vernier caliper. Tumor weight (mg) was estimated using a formula of “tumor weight=½ (L×W^2)”. Tumor measurement was taken daily for the first two weeks and/or during the FL118 treatment period (with the exception of weekend) and then three times a week for the following two weeks of post therapy and twice a week thereafter.
Antitumor activity was assessed by maximum tumor growth inhibition (MTGI), which is the mean tumor weight difference between treated group (MTWTG) and untreated control group (MTWCG) at the same time. The calculated formula is “MTGI=(MTWTG−MTWCG)÷MTWCG×100%”. The tumor doubling time (TDT) was defined as the mean time for the tumor reaching twice its initial weight from the time beginning the treatment (Day 0). Tumor response was expressed as 1) partial tumor response (PR) when tumor weight was reduced at least 50% initial tumor size on Day 0 and 2) complete tumor response (CR) which was defined as inability to detect tumor via palpitation at the initial tumor-transplanted site. […]

## CCC1(O)C(=O)OCc2c1cc1n(c2=O)Cc2cc3cc4c(cc3nc2-1)OCO4 (racemic) [FL113, 10H,12H-1,3-Dioxolo[4,5-g]pyrano[3′,4′:6,7]indolizino[1,2-b]quinoline-8,11(7H,10H)-dione, 7-ethyl-7-hydroxy-, (+-)]
[1]
  antitumor activity, comparison of FL118, FL113 and irinotecan: better than irinotecan in most cases
[2]
  solubility in ethanol: poorly dissolve in ethanol

## CCc1c2c(nc3ccc(OC(=O)N4CCC(N5CCCCC5)CC4)cc13)-c1cc3c(c(=O)n1C2)COC(=O)[C@]3(O)CC [Irinotecan, irinotecan]
[3]
  antitumor activity compared with FDA-approved drugs: second most effective compound
[4]
  MTD: 100 to 200 mg/kg
[5]; weekly×4
  body weight loss (toxicity): accumulated body weight loss
  tumor relapse after complete response: rapid relapse
[5]; weekly×4, 5 mice per group
  mice with complete response: 40%
[6]; 100 mg/kg, i.p. weekly × 4
  CR: 0%
  MTGI: 94.1 ± 3.6%
  PR: 60%
  TDT: 32.7 ± 11.5 days
[6]; one-time i.p. injection at about MTD (FIG. 1)
  antitumor activity compared with FDA-approved drugs: second most effective compound
